# Test results from ChEMBL document CHEMBL1201862, “PubChem BioAssay data set” (2004).
#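 Five concentrations, 48 hours, 96-well plates. GI50 marks 50% less growth.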 Calls of active or inactive are those of the source. No stated cut-off is given here; in the data, active = GI50 up to about 1.1 µM and inactive = higher.
# Assays:
# Experiment in all cases: DTP human tumour cell line panel, 48 h
# HCT-15 = system: HCT-15
# U-251 = system: U-251
# KM12 = system: KM12
# Malme-3M = system: Malme-3M
# SN12C = system: SN12C
# A549 = system: A549
# IGROV-1 = system: IGROV-1
# XF498 = system: XF498
# LOX IMVI = system: LOX IMVI
# MCF7 = system: MCF7
# MDA-MB-435 = system: MDA-MB-435
# A498 = system: A498
# RXF 393 = system: RXF 393
# M19-MEL = system: M19-MEL
# RXF 631 = system: RXF 631
# M14 = system: M14
# NCI-H226 = system: NCI-H226
# OVCAR-4 = system: OVCAR-4
# HOP-62 = system: HOP-62
# RPMI-8226 = system: RPMI-8226
# MOLT-4 = system: MOLT-4
# SF-295 = system: SF-295
# BT-549 = system: BT-549
# 786-0 = system: 786-0
# K562 = system: K562
# HOP-18 = system: HOP-18
# DU-145 = system: DU-145
# UACC-257 = system: UACC-257
# SR = system: SR
# MDA-MB-231 = system: MDA-MB-231
# OVCAR-3 = system: OVCAR-3
# EKVX = system: EKVX
# HOP-92 = system: HOP-92
# HCT-116 = system: HCT-116
# KM-20L2 = system: KM-20L2
# SW-620 = system: SW-620
# OVCAR-5 = system: OVCAR-5
# LXFL 529 = system: LXFL 529
# OVCAR-8 = system: OVCAR-8
# SNB-19 = system: SNB-19
# SK-MEL-2 = system: SK-MEL-2
# HL-60 = system: HL-60
# SK-OV-3 = system: SK-OV-3
# MDA-N = system: MDA-N
# SK-MEL-5 = system: SK-MEL-5
# NCI-H460 = system: NCI-H460
# NCI-H522 = system: NCI-H522
# HCC 2998 = system: HCC 2998
# NCI-H23 = system: NCI-H23
# TK-10 = system: TK-10
# COLO 205 = system: COLO 205
# DLD-1 = system: DLD-1
# PC-3 = system: PC-3
# SF-539 = system: SF-539
# SF-268 = system: SF-268
# CAKI-1 = system: CAKI-1
# ACHN = system: ACHN
# SNB-75 = system: SNB-75
# NCI/ADR-RES = system: NCI/ADR-RES
# SK-MEL-28 = system: SK-MEL-28
# CCRF-CEM = system: CCRF-CEM
# Hs-578T = system: Hs-578T
# UACC-62 = system: UACC-62
# UO-31 = system: UO-31
# HT-29 = system: HT-29
# DMS-114 = system: DMS-114
# DMS-273 = system: DMS-273
smiles,measurement,setting,value
N#CCC(=O)N/N=C(\CCN1CCCC1)CC(c1ccccc1)c1c(O)c2ccccc2oc1=O (stereo not given),GI50,HCT-15,> 67.5 µM
same,GI50,U-251,82.6 µM (inactive)
same,GI50,KM12,> 63.7 µM (inactive)
same,GI50,Malme-3M,60 µM (inactive)
same,GI50,SN12C,> 100 µM (inactive)
same,GI50,A549,> 71.9 µM (inactive)
same,GI50,IGROV-1,> 100 µM (inactive)
same,GI50,XF498,> 100 µM (inactive)
same,GI50,LOX IMVI,> 41.3 µM (inactive)
same,GI50,MCF7,20.2 µM (inactive)
same,GI50,MDA-MB-435,57 µM (inactive)
same,GI50,A498,> 41.1 µM (inactive)
same,GI50,RXF 393,> 100 µM (inactive)
same,GI50,M19-MEL,78.7 µM (inactive)
same,GI50,RXF 631,> 100 µM (inactive)
same,GI50,M14,98.6 µM (inactive)
same,GI50,NCI-H226,> 89.5 µM (inactive)
same,GI50,OVCAR-4,> 86.3 µM (inactive)
same,GI50,HOP-62,> 100 µM (inactive)
same,GI50,RPMI-8226,32.9 µM (inactive)
same,GI50,MOLT-4,24.5 µM (inactive)
same,GI50,SF-295,> 100 µM (inactive)
same,GI50,BT-549,47.5 µM (inactive)
same,GI50,786-0,> 100 µM (inactive)
same,GI50,K562,62.1 µM (inactive)
same,GI50,HOP-18,> 100 µM (inactive)
same,GI50,DU-145,> 100 µM (inactive)
same,GI50,UACC-257,> 70.6 µM (inactive)
same,GI50,SR,29.4 µM (inactive)
same,GI50,MDA-MB-231,40.3 µM (inactive)
same,GI50,OVCAR-3,65.3 µM (inactive)
same,GI50,EKVX,> 100 µM (inactive)
same,GI50,HOP-92,27.7 µM (inactive)
same,GI50,HCT-116,> 84.1 µM (inactive)
same,GI50,KM-20L2,> 100 µM (inactive)
same,GI50,SW-620,> 58.2 µM (inactive)
same,GI50,OVCAR-5,> 100 µM (inactive)
same,GI50,LXFL 529,> 100 µM (inactive)
same,GI50,OVCAR-8,> 95.5 µM (inactive)
same,GI50,SNB-19,> 100 µM (inactive)
same,GI50,SK-MEL-2,> 61.1 µM (inactive)
same,GI50,HL-60,24.5 µM (inactive)
same,GI50,SK-OV-3,> 86.9 µM (inactive)
same,GI50,MDA-N,58.6 µM (inactive)
same,GI50,SK-MEL-5,> 72.1 µM (inactive)
same,GI50,NCI-H460,> 100 µM (inactive)
same,GI50,NCI-H522,70.6 µM (inactive)
same,GI50,HCC 2998,21.2 µM (inactive)
same,GI50,NCI-H23,97.1 µM (inactive)
same,GI50,TK-10,> 78.9 µM (inactive)
same,GI50,COLO 205,25.5 µM (inactive)
same,GI50,DLD-1,> 100 µM (inactive)
same,GI50,PC-3,64.7 µM (inactive)
same,GI50,SF-539,> 88.5 µM (inactive)
same,GI50,SF-268,> 100 µM (inactive)
same,GI50,CAKI-1,> 95.3 µM (inactive)
same,GI50,ACHN,> 60.4 µM (inactive)
same,GI50,SNB-75,> 89.1 µM (inactive)
same,GI50,NCI/ADR-RES,56.4 µM (inactive)
same,GI50,SK-MEL-28,> 100 µM (inactive)
same,GI50,CCRF-CEM,39.4 µM (inactive)
same,GI50,Hs-578T,63.7 µM (inactive)
same,GI50,UACC-62,> 80.2 µM (inactive)
same,GI50,UO-31,59.8 µM (inactive)
same,GI50,HT-29,> 88.7 µM (inactive)
COc1cc2c(cc1C1=NC(C)(C)CO1)OCO2,GI50,HCT-15,> 100 µM
same,GI50,U-251,> 100 µM (inactive)
same,GI50,KM12,> 100 µM (inactive)
same,GI50,Malme-3M,> 100 µM (inactive)
same,GI50,SN12C,> 100 µM (inactive)
same,GI50,A549,> 100 µM (inactive)
same,GI50,IGROV-1,> 100 µM (inactive)
same,GI50,XF498,> 100 µM (inactive)
same,GI50,RXF 393,> 100 µM (inactive)
same,GI50,M19-MEL,> 100 µM (inactive)
same,GI50,RXF 631,> 100 µM (inactive)
same,GI50,M14,> 100 µM (inactive)
same,GI50,NCI-H226,> 100 µM (inactive)
same,GI50,OVCAR-4,> 100 µM (inactive)
same,GI50,HOP-62,> 100 µM (inactive)
same,GI50,RPMI-8226,> 100 µM (inactive)
same,GI50,MOLT-4,> 100 µM (inactive)
same,GI50,SF-295,> 100 µM (inactive)
same,GI50,786-0,> 100 µM (inactive)
same,GI50,K562,> 100 µM (inactive)
same,GI50,HOP-18,> 100 µM (inactive)
same,GI50,UACC-257,> 100 µM (inactive)
same,GI50,SR,> 100 µM (inactive)
same,GI50,OVCAR-3,> 100 µM (inactive)
same,GI50,EKVX,> 100 µM (inactive)
same,GI50,HOP-92,> 100 µM (inactive)
same,GI50,HCT-116,> 100 µM (inactive)
same,GI50,KM-20L2,> 100 µM (inactive)
same,GI50,SW-620,> 100 µM (inactive)
same,GI50,DMS-114,> 100 µM (inactive)
same,GI50,LXFL 529,> 100 µM (inactive)
same,GI50,OVCAR-8,> 100 µM (inactive)
same,GI50,SNB-19,> 100 µM (inactive)
same,GI50,SK-MEL-2,> 100 µM (inactive)
same,GI50,HL-60,> 100 µM (inactive)
same,GI50,SK-OV-3,> 100 µM (inactive)
same,GI50,SK-MEL-5,> 100 µM (inactive)
same,GI50,NCI-H460,> 100 µM (inactive)
same,GI50,NCI-H522,> 100 µM (inactive)
same,GI50,NCI-H23,> 100 µM (inactive)
same,GI50,TK-10,> 100 µM (inactive)
same,GI50,COLO 205,> 100 µM (inactive)
same,GI50,DLD-1,> 100 µM (inactive)
same,GI50,SF-539,> 100 µM (inactive)
same,GI50,SF-268,> 100 µM (inactive)
same,GI50,CAKI-1,> 100 µM (inactive)
same,GI50,ACHN,> 100 µM (inactive)
same,GI50,SNB-75,> 100 µM (inactive)
same,GI50,SK-MEL-28,> 100 µM (inactive)
same,GI50,CCRF-CEM,> 100 µM (inactive)
same,GI50,UACC-62,> 100 µM (inactive)
same,GI50,UO-31,> 100 µM (inactive)
same,GI50,HT-29,> 100 µM (inactive)
CN(C)C(=Nc1nc(N(C)C)s[s+]1)N(C)C,GI50,HCT-15,> 100 µM
same,GI50,DMS-273,> 100 µM (inactive)
same,GI50,U-251,> 100 µM (inactive)
same,GI50,KM12,> 100 µM (inactive)
same,GI50,SN12C,> 100 µM (inactive)
same,GI50,A549,> 100 µM (inactive)
same,GI50,IGROV-1,> 100 µM (inactive)
same,GI50,XF498,> 100 µM (inactive)
same,GI50,A498,> 100 µM (inactive)
same,GI50,RXF 393,> 100 µM (inactive)
same,GI50,M19-MEL,> 100 µM (inactive)
same,GI50,RXF 631,> 100 µM (inactive)
same,GI50,M14,> 100 µM (inactive)
same,GI50,NCI-H226,72.8 µM (inactive)
same,GI50,OVCAR-4,> 100 µM (inactive)
same,GI50,HOP-62,> 100 µM (inactive)
same,GI50,RPMI-8226,> 100 µM (inactive)
same,GI50,MOLT-4,> 100 µM (inactive)
same,GI50,SF-295,> 100 µM (inactive)
same,GI50,786-0,> 100 µM (inactive)
same,GI50,K562,> 100 µM (inactive)
same,GI50,HOP-18,> 100 µM (inactive)
same,GI50,UACC-257,> 100 µM (inactive)
same,GI50,EKVX,> 100 µM (inactive)
same,GI50,HOP-92,> 100 µM (inactive)
same,GI50,KM-20L2,> 100 µM (inactive)
same,GI50,SW-620,> 100 µM (inactive)
same,GI50,DMS-114,> 100 µM (inactive)
same,GI50,OVCAR-5,> 100 µM (inactive)
same,GI50,LXFL 529,> 100 µM (inactive)
same,GI50,OVCAR-8,> 100 µM (inactive)
same,GI50,SNB-19,> 100 µM (inactive)
same,GI50,SK-MEL-2,> 100 µM (inactive)
same,GI50,HL-60,> 100 µM (inactive)
same,GI50,SK-OV-3,> 100 µM (inactive)
same,GI50,SK-MEL-5,> 100 µM (inactive)
same,GI50,NCI-H460,> 100 µM (inactive)
same,GI50,NCI-H522,> 100 µM (inactive)
same,GI50,HCC 2998,> 100 µM (inactive)
same,GI50,NCI-H23,> 100 µM (inactive)
same,GI50,TK-10,> 100 µM (inactive)
same,GI50,DLD-1,> 100 µM (inactive)
same,GI50,SF-539,> 100 µM (inactive)
same,GI50,SF-268,> 100 µM (inactive)
same,GI50,CAKI-1,> 100 µM (inactive)
same,GI50,ACHN,> 100 µM (inactive)
same,GI50,SNB-75,> 100 µM (inactive)
same,GI50,SK-MEL-28,> 100 µM (inactive)
same,GI50,CCRF-CEM,> 100 µM (inactive)
same,GI50,UACC-62,> 100 µM (inactive)
same,GI50,UO-31,> 100 µM (inactive)
same,GI50,HT-29,> 100 µM (inactive)
